Data set [1] addresses T1, hM3D receptor (Homo sapiens, UniProt P20309, A239G/Y149C).
T1 construct: expressed in transfected cells; host or cells: neurons of the left amygdala of live Macaca mulatta, transduced with AAV2-CMV-hM3D
Nature of the data set: 18F-FDG PET glucose metabolism image after C22b 0.1 mg/kg, hM3D expressed in left amygdala. The class given is in vivo. The settings on record: Macaca mulatta. Here is the method: On the day 65 days after the AAV vector was injected, a C22b compound (0.1 mg/kg) was intravenously administered to the same Macaca mulatta as in Example 3 under isoflurane anesthesia, 1 minute later, ^18F-FDG (263 MBq) was intravenously administered, and then subjected to PET scanning for 90 minutes. Note that, here, the C22b compound was HY-42110 (manufactured by MedChem Express) which was the compound represented by Formula (III) in which R^1 was methyl, X was imino, and R^2 was hydrogen.
A glucose metabolism image (whole Brain Activity) when an average in the whole brain was determined as 100% was created from PET data integrated for 90 minutes.

In data set [2] the target is T1, hM3D receptor. The data set can be described thus: 18F-FDG PET glucose metabolism, C22b 1 μg/kg versus solvent, one-way repeated measures ANOVA, hM3D in left amygdala. The class given is in vivo, monkey. The settings on record: Macaca mulatta. Here is the method: Then, the AAV vector was injected into Macaca mulatta different from in Example 3 (male, 3 kg) in the same manner as in Example 3. On the day 70 days after, a C22b compound solution (1 μg/kg) or a solvent was intravenously administered under isoflurane anesthesia, 1 minute later, ^18F-FDG (224 to 286 MBq) was intravenously administered, and then subjected to PET scanning for 120 minutes. The process was performed four times for each intravenous dose. Note that the solvent was the same as a solvent used for the C22b compound solution (solvent: 0.1 mL/kg of saline containing 1% dimethyl sulfoxide and 5% Tween 20 (surfactant)).
A glucose metabolism image (whole brain activity) when an average of the whole brain was determined as 100% was created from PET data integrated from 30 minutes to 60 minutes after the administration. Then, a site in which the C22b administration caused a statistically significant change compared to a solvent administration was analyzed by one-way repeated measures ANOVA using MATLAB (R2016a) and SPM12.

Data set [3] has as its system hM4D receptor. The data set can be described thus: PET imaging with radiolabeled tracer, ligand binding potential image (cerebellum as reference region), hM4D expressed in right putamen. It is filed as in vivo. The settings on record: Japanese macaque, PET 90 minutes, cerebellum BP determined as 1, non-injection region. Here is the method: (§1) The head of Japanese macaque (male/5.5 kg) was fixed to a stereotaxic instrument under general anesthesia, and 6 μL of an adeno-associated virus (AAV) vector (AAV2-CMV-hM4D) for expressing an hM4D receptor in a nerve cell-specific manner was injected for 12 minutes by a Hamilton syringe (10 μL) into a middle portion of the right putamen read from a magnetic resonance imaging (MRI) image taken in advance. Note that, here, the CMV was a promotor for gene expression.
(§2) On the day 427 days after the injection, a compound represented by Formula (II) (hereinafter may be referred to as [^11C]C22b) (364 MBq) serving as a radiolabeled tracer was intravenously administered under isoflurane anesthesia and subjected to PET scanning for 90 minutes.
(§3) An image of a ligand binding potential was created from PET data integrated for 90 minutes using the cerebellum as a reference region (the binding potential (BP) in the cerebellum was determined as 1).

The target of data set [4] is T2, hM4D receptor (Homo sapiens, UniProt P08173, A203G/Y113C). The settings on record: Japanese macaque; for Selectivity (expressed region/unexpressed region): hM4D, ratio of tracer amount per volume; for hM4D-expressed region amount of uptake of tracer: right putamen, PET 30 to 90 minutes after administration. The method, then:
(§4) The [^11C]C22b (Example 2) and [^11C]clozapine ([^11C]CLZ, Comparative Example 1) were compared for a property of visualizing hM4D expressed in the Japanese macaque used in Example 1. The hM4D receptor was expressed in the same manner as in Example 1.
(§5) An average image integrated from 30 to 90 minutes after administration of a tracer was created based on a standardized uptake value (SUV) and an amount of uptake in the brain was calculated from PET imaging taken from 30 to 90 minutes after the administration in the frontal plane including the right putamen in which the hM4D was expressed.

Data set [5] deals with hM4D receptor. The settings on record: Japanese macaque, PET 30 to 90 minutes after administration; for Whole brain amount of uptake of tracer: SUV; for Control region (hM4D-unexpressed region) amount of uptake of tracer: left putamen. The method, then:
as §4, §5

In data set [6] the target is T1, hM3D receptor. The data set can be described thus: PET imaging with radiolabeled tracer, ligand binding potential image (cerebellum as reference region), hM3D expressed in left amygdala. It is filed as in vivo. The settings on record: Macaca mulatta. Here is the method: (§6) The head of Macaca mulatta (male/4.2 kg) was fixed to a stereotaxic instrument under general anesthesia, 3 μL of an adeno-associated virus (AAV) vector (AAV2-CMV-hM3D) for expressing an hM3D receptor in a nerve cell-specific manner was injected for 12 minutes by a Hamilton syringe (10 μL) into a middle portion of the left amygdala read from a magnetic resonance imaging (MRI) image taken in advance. Note that, here, the CMV was a promotor for gene expression.
(§7) On the day 57 days after the injection, the [^11C]C22b (277 MBq) serving as a radiolabeled tracer was intravenously administered under isoflurane anesthesia and subjected to PET scanning for 90 minutes.
(§8) An image of a ligand binding potential was created from PET data integrated for 90 minutes using the cerebellum as a reference region (the binding potential (BP) of the cerebellum was determined as 1). A portion shown by an arrow in FIG. 6 represents the left amygdala into which the AAV vector has been injected.

For data set [7], the system named is hM3D receptor. The description is as above. It is filed as in vivo. The settings on record: Macaca mulatta, PET 90 minutes, cerebellum BP determined as 1, non-injection region. Here is the method: as §6, §7, §8
Data set [8] has as its target T1, hM3D receptor. It is filed as in vivo. The settings on record: Macaca mulatta. Here is the method: as §6, §7
For data set [9], the system named is hM3D receptor. It is filed as in vivo. The settings on record: Macaca mulatta. Here is the method: as §6, §7
Data set [10] addresses T3, hM4D (Homo sapiens, UniProt P08173, A203G/Y113C).
T3 construct: expressed in transfected cells; host or cells: neurons of the right putamen of a live Japanese macaque, transduced with AAV2-CMV-hM4D
T3 sequence (P08173 1-479 Y113C/A203G): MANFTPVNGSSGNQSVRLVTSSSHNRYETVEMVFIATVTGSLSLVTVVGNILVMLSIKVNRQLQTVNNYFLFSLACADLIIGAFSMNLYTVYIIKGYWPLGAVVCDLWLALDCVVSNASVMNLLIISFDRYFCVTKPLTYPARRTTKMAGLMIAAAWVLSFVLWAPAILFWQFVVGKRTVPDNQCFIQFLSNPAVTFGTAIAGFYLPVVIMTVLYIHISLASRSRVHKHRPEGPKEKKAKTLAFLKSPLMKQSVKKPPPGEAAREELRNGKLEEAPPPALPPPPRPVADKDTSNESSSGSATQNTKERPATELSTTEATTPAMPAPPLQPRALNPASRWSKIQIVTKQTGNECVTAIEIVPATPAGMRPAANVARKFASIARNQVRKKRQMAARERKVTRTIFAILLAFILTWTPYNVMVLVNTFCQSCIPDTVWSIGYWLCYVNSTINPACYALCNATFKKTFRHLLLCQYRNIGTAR
The data set can be described thus: PET imaging of axon terminal (substantia nigra pars reticulata), projection target of hM4D-expressing nerve cell in right putamen. The class given is in vivo. The settings on record: Japanese macaque, PET average image 30 to 90 minutes after tracer. The method, then: (§9) Specifically, the [^11C]C22b was exogenously administered as a tracer in the same manner as in Example 1 and subjected to PET scanning for 90 minutes.
(§10) Specifically, the compound represented by […] ([^11C]C22b) was exogenously administered as a tracer and subjected to PET scanning for 90 minutes.

For data set [11], the target named is T2, hM4D receptor. Nature of the data set: PET imaging with radiolabeled tracer, ligand binding potential image (cerebellum as reference region), hM4D expressed in right putamen. The class given is in vivo. The settings on record: Japanese macaque. Also noted: expressed in transfected cells; host or cells: neurons of the right putamen of a live Japanese macaque, transduced with AAV2-CMV-hM4D. The method, then: as §1, §2, §3

Data set [12] deals with hM4D. The data set can be described thus: PET imaging of axon terminal (substantia nigra pars reticulata), projection target of hM4D-expressing nerve cell in right putamen. The class given is in vivo. The settings on record: Japanese macaque, PET average image 30 to 90 minutes after tracer. Here is the method: as §9, §10

Where only a bound is given, the exact number is not on record here.

T1 sequence (P20309 whole entry Y149C/A239G, the tested form may be a part): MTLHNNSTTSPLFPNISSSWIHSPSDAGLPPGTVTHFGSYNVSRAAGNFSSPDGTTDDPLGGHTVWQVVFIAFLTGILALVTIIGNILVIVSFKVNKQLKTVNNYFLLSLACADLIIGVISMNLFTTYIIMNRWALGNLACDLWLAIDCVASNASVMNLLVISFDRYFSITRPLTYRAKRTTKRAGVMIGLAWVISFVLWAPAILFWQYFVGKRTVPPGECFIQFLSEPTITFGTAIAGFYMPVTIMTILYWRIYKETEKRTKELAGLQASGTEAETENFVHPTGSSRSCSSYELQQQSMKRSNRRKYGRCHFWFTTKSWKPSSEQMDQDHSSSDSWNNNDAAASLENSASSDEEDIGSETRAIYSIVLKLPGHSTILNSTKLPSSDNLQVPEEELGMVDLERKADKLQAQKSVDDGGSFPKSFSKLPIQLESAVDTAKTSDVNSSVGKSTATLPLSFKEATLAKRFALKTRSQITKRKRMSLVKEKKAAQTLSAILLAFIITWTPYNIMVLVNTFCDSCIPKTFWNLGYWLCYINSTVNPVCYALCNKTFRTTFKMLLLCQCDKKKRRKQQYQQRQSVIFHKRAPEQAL

Turning to `CN1CCN(C2=Nc3ccccc3Nc3ccccc32)CC1` [C22b], the “glucose metabolism in left amygdala (AAV injected) relative to control region (right amygdala)” value on hM3D receptor [1] (C22b 0.1 mg/kg i.v., 18F-FDG PET 90 minutes) is 1.88 times. The “action at hM3D receptor” value on hM3D receptor [1] (glucose metabolism activated in hM3D-expressing left amygdala) is given as “acted as an agonist”. Also, the “t-value for the AAV vector injected region (one-way repeated measures ANOVA)” value on hM3D receptor [2] (C22b 1 μg/kg i.v. vs solvent, left amygdala) is recorded as over 5.2. On hM3D receptor [2] (C22b 1 μg/kg i.v., 18F-FDG PET 30 to 60 minutes, uncorrected p<0.001), the “glucose metabolism activity in left amygdala, C22b versus solvent administration” value is given as “significantly high”.

With `[11CH3]N1CCC(C2=Nc3ccccc3Nc3ccccc32)CC1` [[^11C]C22b], the “binding potential in control region (left putamen)” value with hM4D receptor [3] worked out at 0.28. The “Selectivity (expressed region/unexpressed region)” value is 2.31 on hM4D receptor [4] and 1.45 on hM3D receptor [8] (hM3D, ratio of tracer amount per volume). Moreover, at hM4D receptor [4], the “hM4D-expressed region amount of uptake of tracer” value was 6.32 g/cc. For the same molecule, the “Whole brain amount of uptake of tracer” value in the data set on hM4D receptor [5] is 2.47 g/cc; in the data set on hM3D receptor [9], 2.42 g/cc. Besides, in the data set with hM4D receptor [5], the “Control region (hM4D-unexpressed region) amount of uptake of tracer” value is listed as 2.74 g/cc. In addition, the “binding potential in the left amygdala into which the AAV vector had been injected” value at hM3D receptor [6] (i.v. tracer 277 MBq, PET 90 minutes, cerebellum BP determined as 1, hM3D-expressed region) worked out at 1.05. The “binding potential of injected region relative to non-injection region” value on hM3D receptor [6] (left amygdala (hM3D) vs right amygdala) amounted to 3.4 times; on hM4D receptor [11] (right putamen (hM4D) vs left putamen), 11 times. Further, the “binding potential in control region (right amygdala)” value with hM3D receptor [7] worked out at 0.31. Also, the “hM3D-expressed region amount of uptake of tracer” value at hM3D receptor [8] (left amygdala) is 3.77 g/cc. For the same molecule, the “Control region (hM3D-unexpressed region) amount of uptake of tracer” value with hM3D receptor [9] (opposite region) is listed as 2.60 g/cc. Further, at hM4D [10], the “visualisation of hM4D in the axon terminal (substantia nigra pars reticulata)” value is listed as “hM4D was confirmed to be expressed in the axon terminal”. At hM4D receptor [11] (i.v. tracer 364 MBq, PET 90 minutes, cerebellum BP determined as 1, hM4D-expressed region), the “binding potential in the right putamen into which the AAV vector had been injected” value was 3.07.

As to `CN1CCN(C2=Nc3cc(Cl)ccc3Nc3ccccc32)CC1` [[^11C]clozapine, [^11C]8-chloro-11-(4-methylpiperazine-1-yl)-5H-dibenzo[b,e] [1,4]diazepine, reference compound], at hM4D receptor [4], the “Selectivity (expressed region/unexpressed region)” value came out at 1.25 and the “hM4D-expressed region amount of uptake of tracer” value is 5.73 g/cc. Besides, in the data set on hM4D receptor [5], the “Whole brain amount of uptake of tracer” value was 3.24 g/cc and the “Control region (hM4D-unexpressed region) amount of uptake of tracer” value worked out at 4.57 g/cc. Also, the “visualisation of hM4D in the axon terminal (substantia nigra pars reticulata)” value on hM4D [10] was “hM4D was confirmed to be expressed in the axon terminal”. Also, the “binding to other nerve cells or brain tissues (off-target)” value with hM4D [12] is recorded as “also allowed to bind to nerve cells other than the nerve cell of interest or brain tissues to some extent”.

(Values after US20250064992A1, “IMAGING METHOD FOR DESIGNER RECEPTOR, ANTAGONIST OR AGONIST, PHARMACEUTICAL, AND COMPANION DIAGNOSTIC AGENT” (priority 2018, published 2025).)
